Read-outs that look alike come from different tables or passages of the source.
Key:
[1] = target: purified human autoBACE-2 (Homo sapiens (Human), UniProt Q9Y5Z0); assay: BACE-2 Assay (BACE-HTRF assay); type: biochemical; conditions: for inhibition at 10 µM: read-out: inhibition of BACE2 at 10 μM
Procedure: Inhibitor IC50s at purified human autoBACE-2 are determined in a time-resolved endpoint proteolysis assay that measures hydrolysis of the QSY7-[…]-Eu-amide FRET peptide substrate (BACE-HTRF assay). […] DMSO is present at 5% final concentration in the assay. Following laser excitation of sample wells at 320 nm, the fluorescence signal at 620 nm is collected for 400 ms following a 50 μs delay on a RUBYstar HTRF plate reader (BMG Labtechnologies). Raw RFU data is normalized to maximum (1.0 nM BACE/DMSO) and minimum (no enzyme/DMSO) RFU values. […] The Ki values are calculated from the IC50 using the Cheng-Prusoff equation.

[2] = target: soluble human BACE1 catalytic domain (Homo sapiens (Human), UniProt P56817); assay: BACE1 HTRF FRET Assay; conditions: for inhibition at 10 µM: read-out: BACE1 inhibition, % Inh. at 10 μM, at 10 μM
[3] = Ki calculated from IC50 using the Cheng-Prusoff equation, read-out: BACE2 Ki
[4] = read-out: BACE1 Ki, Ki calculated from IC50 using the Cheng-Prusoff equation

Sequence of soluble human BACE1 catalytic domain (P56817 75-416): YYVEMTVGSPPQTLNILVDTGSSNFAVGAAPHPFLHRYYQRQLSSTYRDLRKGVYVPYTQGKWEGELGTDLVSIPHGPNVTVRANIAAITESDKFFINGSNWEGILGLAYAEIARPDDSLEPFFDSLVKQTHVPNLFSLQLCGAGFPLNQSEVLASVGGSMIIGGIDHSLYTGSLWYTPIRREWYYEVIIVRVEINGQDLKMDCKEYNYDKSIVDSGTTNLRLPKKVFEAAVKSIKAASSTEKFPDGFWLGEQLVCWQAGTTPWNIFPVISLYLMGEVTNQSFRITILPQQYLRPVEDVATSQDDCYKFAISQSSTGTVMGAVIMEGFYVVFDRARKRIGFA
Sequence of purified human autoBACE-2 (Q9Y5Z0 63-473): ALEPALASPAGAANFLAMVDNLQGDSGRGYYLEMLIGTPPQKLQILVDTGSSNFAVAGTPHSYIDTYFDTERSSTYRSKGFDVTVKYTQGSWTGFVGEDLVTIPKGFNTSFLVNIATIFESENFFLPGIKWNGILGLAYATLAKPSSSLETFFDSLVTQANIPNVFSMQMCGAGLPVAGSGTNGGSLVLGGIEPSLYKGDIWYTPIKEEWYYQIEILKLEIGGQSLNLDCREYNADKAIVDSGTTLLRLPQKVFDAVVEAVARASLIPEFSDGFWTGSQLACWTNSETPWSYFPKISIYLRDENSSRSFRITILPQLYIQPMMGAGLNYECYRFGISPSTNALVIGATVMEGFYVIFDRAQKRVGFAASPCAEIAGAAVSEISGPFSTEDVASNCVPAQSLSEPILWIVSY

Compound	inhibition at 10 µM [2] [%]	Ki [1, 3] [nM]	Ki [2, 4] [nM]	also measured
Cc1nc2ccc(CC3(C)C(=N)N[C@](C)(c4cc(F)ccc4F)CS3(=O)=O)cc2s1 (mixture of isomers) [32b-a and 32b-b]	11			inhibition at 10 µM [1]: 1 to 24%
C[C@@]1(C2CC2)C(=N)N[C@](C)(c2cc([N+](=O)[O-])ccc2F)CS1(=O)=O [Entry 30]	30			inhibition at 10 µM [1]: 29 to 47%
C[C@@]1(C2CCC2)C(=N)N[C@](C)(c2cc(N)ccc2F)CS1(=O)=O [Entry 40]	20			inhibition at 10 µM [1]: 29 to 47%
C[C@@]1(c2cccc(F)c2)C(=N)N[C@](C)(c2cc(N)ccc2F)CS1(=O)=O [Entry 61]	27			inhibition at 10 µM [1]: 29 to 47%
C[C@@]1(c2cccc(C(F)(F)F)c2)C(=N)N[C@](C)(c2cc(N)ccc2F)CS1(=O)=O [Entry 69]	17			inhibition at 10 µM [1]: 29 to 47%
C[C@@]1(c2ccccn2)C(=N)N[C@](C)(c2cc(N)ccc2F)CS1(=O)=O [Entry 77]	25			inhibition at 10 µM [1]: 29 to 47%
C[C@@]1(c2cccc(F)c2)C(=N)N[C@](C)(c2sc(Br)cc2F)CS1(=O)=O [Entry 88]	34			inhibition at 10 µM [1]: 29 to 47%
CC1(C)C(=N)N[C@](C)(c2cc(N)ccc2F)CS1(=O)=O [Example 2-2]				Ki [1]: 500 to 10000 nM; Ki ([2]; read-out: BACE1 inhibition, Ki): 6100 nM
CC1(C)C(=N)N[C@](C)(c2cc(N)cc(F)c2F)CS1(=O)=O [Example 2A-5]	51	500 to 10000		
CC1(C)C(N)=N[C@](C)(c2cc(Br)ccc2F)CS1(=O)=O [Example 3-3]	56	500 to 10000		
CC1(C)C(=N)N[C@](C)(c2sc(Br)cc2Cl)CS1(=O)=O [Example 4-1]		500 to 10000		Ki ([2]; read-out: BACE1 inhibition, Ki): 1500 nM
COc1ccc(C(=O)Nc2cc(F)c(F)c([C@]3(C)CS(=O)(=O)C(C)(C)C(=N)N3)c2F)nc1 [Example 9ac]		13	18.9	
CC1(C)C(=N)N[C@](C)(c2c(F)c(F)cc(NC(=O)c3ccc(C(F)(F)F)cn3)c2F)CS1(=O)=O [Example 9ad]		41	7.9	
COc1cnc(C(=O)Nc2cc(F)c(F)c([C@]3(C)CS(=O)(=O)C(C)(C)C(=N)N3)c2F)cn1 [Example 9ae]		69	45.4	
CC(F)(F)C(=O)Nc1ccc(F)c([C@]2(C)CS(=O)(=O)C(C)(C)C(=N)N2)c1 [Example 9ai]		18	82	
COCC(=O)Nc1ccc(F)c([C@]2(C)CS(=O)(=O)C(C)(C)C(=N)N2)c1 [Example 9at]		14	60	
CC1(C)C(=N)N[C@](C)(c2cc(NC(=O)C3CCC3(F)F)ccc2F)CS1(=O)=O (some centres unmarked) [Example 9aw]		47	299	
CC1(C)C(=N)N[C@](C)(c2cc(NC(=O)c3ccno3)ccc2F)CS1(=O)=O [Example 9ax]		22	82	
CC1(C)C(=N)N[C@](C)(c2cc(NC(=O)c3ncc(F)cc3F)cc(F)c2F)CS1(=O)=O [Example 9ba]		1	21	
CC1(C)C(=N)N[C@](C)(c2cc(NC(=O)C(F)F)cc(F)c2F)CS1(=O)=O [Example 9bd]		40	233	
CC1(C)C(=N)N[C@](C)(c2cc(NC(=O)c3ccc(C(F)(F)F)cn3)cc(F)c2F)CS1(=O)=O [Example 9bf]		11	25	
CC1(C)C(=N)N[C@](C)(c2cc(NC(=O)c3ccc(C#N)cn3)cc(F)c2F)CS1(=O)=O [Example 9bg]		3	6	
Cc1ccc(C(=O)Nc2cc(F)c(F)c([C@]3(C)CS(=O)(=O)C(C)(C)C(=N)N3)c2)nc1 [Example 9bh]		4	13	
CC1(C)C(=N)N[C@](C)(c2cc(NC(=O)c3ccc(Cl)cc3)cc(F)c2F)CS1(=O)=O [Example 9bi]		9	22	
COCC(=O)Nc1cc(F)c(F)c([C@]2(C)CS(=O)(=O)C(C)(C)C(=N)N2)c1 [Example 9bk]		12	112	
CC(F)(F)C(=O)Nc1cc(F)c(F)c([C@]2(C)CS(=O)(=O)C(C)(C)C(=N)N2)c1 [Example 9bl]		40	79	
Cc1cnc(C(=O)Nc2cc(F)c(F)c([C@]3(C)CS(=O)(=O)C(C)(C)C(=N)N3)c2)cn1 [Example 9bo]		22	69	
CC1(C)C(=N)N[C@](C)(c2cc(NC(=O)c3cocn3)cc(F)c2F)CS1(=O)=O [Example 9bu]		5	42	

— US9499502B2, “5-substituted iminothiazines and their mono- and dioxides as BACE inhibitors, compositions, and their use” (Merck Sharp & Dohme Corp., priority 2011, dated 2016)
